Experimental data published in US11767305B2, “Advantageous benzofuran compositions for mental disorders or enhancement” (Tactogen Inc, priority 2020, dated 2023).
Entries after “also recorded” stand apart in the source; their conditions may differ. Where two headings read alike, the source gives them in different places.

What was measured:
[1] = molecular target: T1, serotonin (5-HT) transporter (SERT) (Rattus norvegicus (Rat), UniProt P31652); experiment: Rat synaptosome SERT [3H]5-HT uptake inhibition assay; settings: Inhibition of [3H]5-HT Uptake at SERT IC50 (nM), 5 nM [3H]5-HT
[2] = molecular target: T1, serotonin (5-HT) transporter (SERT); experiment: Rat synaptosome SERT [3H]5-HT release assay; settings: [3H]5-HT release via SERT EC50 (nM), 5 nM [3H]5-HT
[3] = molecular target: MAO-A (Homo sapiens (Human), UniProt P21397); experiment: MAO-A inhibition assay (kynuramine); type: biochemical
MAO-A, sequence (P21397 whole entry, looked up, species assumed): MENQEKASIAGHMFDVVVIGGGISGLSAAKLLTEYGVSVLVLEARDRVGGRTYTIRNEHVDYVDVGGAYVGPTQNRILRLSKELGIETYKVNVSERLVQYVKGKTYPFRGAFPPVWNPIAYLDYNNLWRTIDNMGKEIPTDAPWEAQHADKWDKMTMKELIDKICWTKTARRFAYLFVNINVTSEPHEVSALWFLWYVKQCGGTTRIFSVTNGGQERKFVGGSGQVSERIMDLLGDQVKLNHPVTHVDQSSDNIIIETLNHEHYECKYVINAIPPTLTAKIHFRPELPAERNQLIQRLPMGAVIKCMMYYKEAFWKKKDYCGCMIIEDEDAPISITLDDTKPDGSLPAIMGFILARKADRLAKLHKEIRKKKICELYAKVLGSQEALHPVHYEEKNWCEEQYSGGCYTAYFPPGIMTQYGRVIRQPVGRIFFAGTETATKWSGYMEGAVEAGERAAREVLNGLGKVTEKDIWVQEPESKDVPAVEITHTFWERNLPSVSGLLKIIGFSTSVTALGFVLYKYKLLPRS

[4] = molecular target: 5-HT1BR (Homo sapiens (Human), UniProt P28222); experiment: 5-HT1BR cAMP secondary messenger agonist assay (HitHunter, CHO-K1); type: cell-based
Source text: The 5-HT1BR cAMP secondary messenger agonist assay used a panel of CHO-K1 cell lines stably expressing non-tagged GPCRs that endogenously signal through cAMP. Hit Hunter® cAMP assays monitored the activation of a GPCR via Gi and Gs secondary messenger signaling in a homogenous, non-imaging assay format using DiscoverX Enzyme Fragment Complementation (EFC) with β-galactosidase as the functional endpoint.
The enzyme was split into two complementary portions: Enzyme Acceptor (EA) and Enzyme Donor (ED). Exogenously introduced ED fused to cAMP (ED-cAMP) competed with endogenously generated cAMP for binding to an anti-cAMP-specific antibody. Active β-galactosidase was formed by complementation of exogenous EA to any unbound ED-cAMP.
Cell lines were expanded from freezer stocks according to standard procedures. Cells were seeded in a total volume of 20 μL into white walled, 384-well microplates and incubated at 37° C. for the appropriate time prior to testing. cAMP modulation was determined using the DiscoverX HitHunter cAMP XS+ assay.
For agonist determination, cells were incubated with sample (in the presence of EC80 forskolin to induce response if measuring Gi secondary messenger signaling). Media was aspirated from cells and replaced with 15 μL 2:1 HBSS/10 mM Hepes:cAMP XS+ Ab reagent. Intermediate dilution of sample stocks was performed to generate 4×sample in assay buffer (optionally containing 4×EC80 forskolin). 5 μL of 4×sample was added to cells and incubated at 37° C. or room temperature for 30 or 60 minutes, as appropriate. Final assay vehicle concentration was 1%.

[5] = molecular target: DAT (Homo sapiens (Human), UniProt Q01959); experiment: hDAT release assay in CHO cells ([3H]dopamine)
[6] = molecular target: human 5-HT transporter (hSERT) (Homo sapiens (Human), UniProt P31645); experiment: Human serotonin transporter  assay ([3H]imipramine radioligand, CHO cells); type: binding; settings: SERT IC50 (μM), 2 nM [3H]imipramine
Procedure: Benzofuran derivatives were evaluated for inhibiting the human 5-HT transporter (hSERT) as expressed in CHO cells using an antagonist radioligand assay (Tatsumi, M. et al. (1999), Eur. J Pharmacol., 368: 277-283). […] Test compounds were assayed in three trials at […], and 0.94868 μM.

[7] = molecular target: SERT (Homo sapiens (Human), UniProt P31645); experiment: hSERT release assay in CHO cells ([3H]serotonin)
[8] = Solubility assessment in FaSSIF V2 media; settings: room temp, scale up samples of racemic 5-MAPB salts
[9] = test system: healthy human individual; experiment: Human effects of non-racemic 5-MAPB, self-reported ratings (Good, Bad, Open); type: in vivo; settings: averaged from all sessions, 54 mg 5-MAPB HCl oral in two halves
Procedure: The effects of non-racemic 5-MAPB HCl were tested by a healthy human individual at four different ratios of enantiomers plus the racemate as a control: • 54 mg S and 0 mg R (100% S) • 47 mg Sand 7 mg R (87% S) • 36 mg S and 18 mg R (67% S) • 27 mg S and 27 mg R (50% S) • 7 mg S and 47 mg R (13% S)
Two trials were carried out at each ratio, except for 13% S where only one was conducted. Trials were at least 72 h apart.
5-MAPB HCl was dissolved in 1.5 ml distilled water and consumed in two halves, separated by 1 hour. Starting at 3 hours after administration, tablets of 250 mg ascorbic acid and capsules of 300 mg alpha lipoic acid were taken ad libitum (approximately every hour for a total of 4 administrations).
Measurements were made approximately every 2 hours until post 6 hours and the maximum ratings per session were analyzed. Additionally, an index of good drug effects versus emotional openness, calculated as (Open−Good)/(200, the theoretical maximum of Open+Good), was constructed at each time point and the maximum analyzed. In healthy volunteers, Good Ratings can be considered a predictor of abuse liability. Accordingly, this index can be used as an indicator of the balance of a therapeutic effect (emotional openness) vs abuse liability.
Historic data of two trials 50 mg RS-5-MAPB Cl from the same individual were also included in the analysis for comparison.

[10] = test system: MDR1-MDCKII; experiment: In vitro absorption assay, MDR1-MDCKII permeability; type: in vitro ADME; settings: 10 μM
Procedure: (§1) The permeability of 10 μM RS-5-MAPB in Caco-2, MDCKII, and MDR1-MDCKII cell line assays was assessed (Table 6). Both the AB and BA directions with and without the addition of a Pgp-specific inhibitor (verapamil), a MRP1 inhibitor (MK571), and an ATP-binding cassette subfamily G member 2 (ABCG2/BCRP) inhibitor (KO143) were measured. Trials were repeated twice, and values averaged.

[11] = test system: Caco-2; experiment: In vitro absorption assay, Caco-2 permeability; type: in vitro ADME; settings: for Permeability (Papp, 10^-6 cm/s) A-B / Permeability (Papp, 10^-6 cm/s) B-A: 10 μM
Procedure: as §1

[12] = test system: MDCKII; experiment: In vitro absorption assay, MDCKII permeability; type: in vitro ADME; settings: 10 μM, pH 7.4/7.4
Procedure: as §1

Q: With `CN[C@@H](C)Cc1ccc2occc2c1` [Compound S-5-MAPB, (S)-1-(benzofuran-5-yl)-N-methylpropan-2-amine] as the molecule, how does the IC50 [1] read?
A: Its IC50 is 60.4 ± 2.8 nM.

Q: And the EC50 [2]?
A: The EC50 was 13 ± 1.2 nM.

Q: And the IC50 [3]?
A: Its IC50 is 1290 nM.

Q: And the “Hill Coef.” value [4]?
A: The value was 1.08.

Q: And the EC50 ([4]; 5-HT1BR EC50 (μM))?
A: Its EC50 is 0.161 µM.

Q: And the EC50 ([4]; 5HT1B Agonist (μM))?
A: The EC50 was 0.16 µM.

Q: And the EC50 ([5]; EC50 DAT (Mean ± SEM, nM), CHO cells expressing hDAT)?
A: The EC50 was 258 ± 99 nM.

Q: And the IC50 [6]?
A: The IC50 was 3.4 µM.

Q: And the EC50 ([7]; EC50 SERT (Mean ± SEM, nM), CHO cells expressing hSERT)?
A: Its EC50 is 67 ± 15 nM.

Q: Which Solubility [8] does the source give for `CNC(C)Cc1ccc2occc2c1.Cl` (stereo not drawn) [Pattern 1A, 5-MAPB hydrochloride] here?
A: Its Solubility is over 10000 µg/mL.

Q: For `Br.CNC(C)Cc1ccc2occc2c1` (stereo not drawn) [Pattern 2B], which Solubility [8] is on record?
A: Its Solubility is over 10000 µg/mL.

Q: With `CNC(C)Cc1ccc2occc2c1.O=C(O)/C=C\C(=O)O` (stereo not drawn) [Pattern 10A] as the molecule, how does the Solubility [8] read?
A: The Solubility was over 10000 µg/mL.

Q: With `CNC(C)Cc1ccc2occc2c1.Cl` (stereo not drawn) [RS-5-MAPB] as the molecule, how does the Bad ([9]; maximum 0-100 rating of bad drug effects) read?
A: The Bad was 10%.

Q: And the Open ([9]; maximum 0-100 rating of emotional openness)?
A: The Open was 45%.

Q: What about the Good ([9]; maximum 0-100 rating of good drug effects) of the same molecule?
A: Its Good is 50%.

Q: And the “Permeability (Papp, 10^-6 cm/s) A-B” value ([10]; pH 7.4/7.4)?
A: The value was 68.7 10^-6 cm/s.

Q: And the “Permeability (Papp, 10^-6 cm/s) B-A” value ([10]; pH 7.4/7.4)?
A: The value was 20.5 10^-6 cm/s.

Q: And the “Permeability (Papp, 10^-6 cm/s) A-B” value ([10]; pH 7.4/7.4 + verapamil)?
A: The value was 42.8 10^-6 cm/s.

Q: And the “Permeability (Papp, 10^-6 cm/s) B-A” value ([10]; pH 7.4/7.4 + verapamil)?
A: The value was 30.4 10^-6 cm/s.

Q: What about the EC50 ([5]; read-out: EC50 DAT (Mean ± SEM), CHO cells expressing hDAT) of the same molecule?
A: Its EC50 is 459 ± 48 nM.

Q: What about the “Permeability (Papp, 10^-6 cm/s) A-B” value ([11]; Caco-2, pH 7.4/7.4) of the same molecule?
A: Its value is 81 10^-6 cm/s.

Q: And the “Permeability (Papp, 10^-6 cm/s) B-A” value ([11]; Caco-2, pH 7.4/7.4)?
A: The value was 29.1 10^-6 cm/s.

Q: What about the “Permeability (Papp, 10^-6 cm/s) A-B” value ([11]; Caco-2, pH 7.4/7.4 + KO143) of the same molecule?
A: Its value is 75.3 10^-6 cm/s.

Q: What about the “Permeability (Papp, 10^-6 cm/s) B-A” value ([11]; Caco-2, pH 7.4/7.4 + KO143) of the same molecule?
A: The value was 14 10^-6 cm/s.

Q: What about the “Permeability (Papp, 10^-6 cm/s) A-B” value ([11]; Caco-2, pH 7.4/7.4 + verapamil) of the same molecule?
A: The value was 37.6 10^-6 cm/s.

Q: And the “Permeability (Papp, 10^-6 cm/s) B-A” value ([11]; Caco-2, pH 7.4/7.4 + verapamil)?
A: The value was 23 10^-6 cm/s.

Q: What about the “absorption and transport (conclusion from permeability assays)” value ([11]; Caco-2, MDCKII and MDR1-MDCKII) of the same molecule?
A: Its value is “well absorbed; also recorded: actively transported through a mechanism that was inhibited by verapamil”.

Q: And the “Permeability (Papp, 10^-6 cm/s) A-B” value [12]?
A: The value was 82.1 10^-6 cm/s.

Q: And the “Permeability (Papp, 10^-6 cm/s) B-A” value [12]?
A: Its value is 19.8 10^-6 cm/s.

Q: And the EC50 ([7]; read-out: EC50 SERT (Mean ± SEM), CHO cells expressing hSERT)?
A: The EC50 was 90 ± 16 nM.
